Structures can show the parent of a compound that is named as a salt. Where two headings read alike, the source gives them in different places.
Legend:
[1] = test system: Trametes versicolor laccase; assay: Laccase inhibitor evaluation: rate of ABTS^−2 oxidation at varied inhibitor and substrate concentrations (1/V versus [I] plots); format: biochemical
Description: High potential quinones/quinols were screened to identify those with characteristics that would be suitable for use as an inhibitor of laccase, to be used in an activity switch.
Compounds were evaluated by varying the concentrations of inhibitor and substrate (ABTS^−2) and measuring under each condition the rate of ABTS^−2 oxidation. […] Tetrachloro-o-quinol and tetrafluoro-o-quinol, shown in Diagram I, had Kds, of 7-9 μM and 2.5 μM, respectively, as determined from the data in FIG. 12.
After the addition of sodium cyanoborohydride (6 mg, 100 nmol), the reaction mixture was stirred for an additional 2 hours, washed with water (2×0.5 mL) and dried on a rotavap.

[2] = test system: Trametes versicolor laccase; assay: Laccase assay: ABTS^−2 oxidation followed by absorbance change at 436 nm, with and without NaF; format: biochemical; conditions: 1 mM NaF; 5 mM ABTS^−2 in 50 mM Glycine pH 3.0
[3] = test system: laccase Type I copper center; assay: Laccase 600 nm absorbance peak on inhibitor binding; set-up: species or system Trametes versicolor; conditions: charge-transfer band of Type I copper center
Source text: This conclusion was strengthened by the observation that the binding of tetrachloro-o-quinol to laccase caused a decrease in the amplitude of the laccase 600 nm absorbance peak, dominated by a charge-transfer band involving the Type I copper center and its cysteinyl ligand.

[4] = inhibitor of laccase, substrate ABTS^−2, read-out: Kd (dissociation constant of the inhibitor, −Ki at intersection point)

Row | SMILES | Kd [1, 4] | activity as laccase inhibitor ([1]; substrate ABTS^−2) | also measured
1 | CCn1c(=NN=c2sc3cc(S(=O)(=O)O)ccc3n2CC)sc2cc(S(=O)(=O)O)ccc21 [ABTS^−2, 2,2′-azino-bis(3-ethylbenz-thiazoline-6-sulfonate) diammonium salt, reference compound] |  |  | Kd ([1]; substrate binding to laccase, read-out: dissociation constant, Kd of the laccase substrate): 120 to 240 µM
2 | [F-].[Na+] [NaF] |  |  | inhibition of laccase activity [2]: 95%
3 | Oc1c(O)c(Cl)c(Cl)c(Cl)c1Cl [Tetrachloro-o-quinol] | 7 to 9 µM | effective inhibitor | amplitude of the laccase 600 nm absorbance peak on binding [3]: decrease
4 | Oc1c(Cl)c(Cl)c(O)c(Cl)c1Cl [tetrachloro-p-quinol, reference compound] |  | inactive as an inhibitor | 
5 | Oc1c(O)c(F)c(F)c(F)c1F [tetrafluoro-o-quinol] | 2.5 µM |  | 

— patent US7638036B2, “Redox potential mediated carbon nanotubes biosensing in homogeneous format” (E. I. du Pont de Nemours and Company, priority 2004, dated 2009)
